Where two headings read alike, the source gives them in different places.
Assays:
Assay in all cases: selectivity profiling in a panel of 340 wild-type kinases (Reaction Biology Europe)
Format in all cases: binding
340 wild-type kinases [1] = molecular target: T1, 340 wild-type kinases (Homo sapiens, UniProt Q9HAZ1)
T1 construct: purchased Reaction Biology Europe

340 wild-type kinases [2] = molecular target: T2, 340 wild-type kinases (Homo sapiens, UniProt Q16644)
T2 construct: purchased Reaction Biology Europe

340 wild-type kinases [3] = molecular target: T3, 340 wild-type kinases (Homo sapiens, UniProt P45984)
T3 construct: purchased Reaction Biology Europe
T3 sequence (P45984 whole entry): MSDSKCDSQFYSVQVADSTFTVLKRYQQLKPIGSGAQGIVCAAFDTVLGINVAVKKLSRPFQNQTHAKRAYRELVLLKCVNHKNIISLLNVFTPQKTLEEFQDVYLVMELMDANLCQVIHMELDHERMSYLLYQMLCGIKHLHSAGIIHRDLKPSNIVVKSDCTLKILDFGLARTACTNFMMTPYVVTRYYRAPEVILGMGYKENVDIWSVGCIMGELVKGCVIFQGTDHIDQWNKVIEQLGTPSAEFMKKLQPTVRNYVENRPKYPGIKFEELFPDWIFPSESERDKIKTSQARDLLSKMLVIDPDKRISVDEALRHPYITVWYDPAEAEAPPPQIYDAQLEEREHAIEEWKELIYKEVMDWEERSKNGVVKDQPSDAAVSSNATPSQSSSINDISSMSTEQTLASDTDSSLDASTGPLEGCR

340 wild-type kinases [4] = molecular target: T4, 340 wild-type kinases (Homo sapiens, UniProt P29597)
T4 construct: purchased Reaction Biology Europe
T4 sequence (P29597 whole entry): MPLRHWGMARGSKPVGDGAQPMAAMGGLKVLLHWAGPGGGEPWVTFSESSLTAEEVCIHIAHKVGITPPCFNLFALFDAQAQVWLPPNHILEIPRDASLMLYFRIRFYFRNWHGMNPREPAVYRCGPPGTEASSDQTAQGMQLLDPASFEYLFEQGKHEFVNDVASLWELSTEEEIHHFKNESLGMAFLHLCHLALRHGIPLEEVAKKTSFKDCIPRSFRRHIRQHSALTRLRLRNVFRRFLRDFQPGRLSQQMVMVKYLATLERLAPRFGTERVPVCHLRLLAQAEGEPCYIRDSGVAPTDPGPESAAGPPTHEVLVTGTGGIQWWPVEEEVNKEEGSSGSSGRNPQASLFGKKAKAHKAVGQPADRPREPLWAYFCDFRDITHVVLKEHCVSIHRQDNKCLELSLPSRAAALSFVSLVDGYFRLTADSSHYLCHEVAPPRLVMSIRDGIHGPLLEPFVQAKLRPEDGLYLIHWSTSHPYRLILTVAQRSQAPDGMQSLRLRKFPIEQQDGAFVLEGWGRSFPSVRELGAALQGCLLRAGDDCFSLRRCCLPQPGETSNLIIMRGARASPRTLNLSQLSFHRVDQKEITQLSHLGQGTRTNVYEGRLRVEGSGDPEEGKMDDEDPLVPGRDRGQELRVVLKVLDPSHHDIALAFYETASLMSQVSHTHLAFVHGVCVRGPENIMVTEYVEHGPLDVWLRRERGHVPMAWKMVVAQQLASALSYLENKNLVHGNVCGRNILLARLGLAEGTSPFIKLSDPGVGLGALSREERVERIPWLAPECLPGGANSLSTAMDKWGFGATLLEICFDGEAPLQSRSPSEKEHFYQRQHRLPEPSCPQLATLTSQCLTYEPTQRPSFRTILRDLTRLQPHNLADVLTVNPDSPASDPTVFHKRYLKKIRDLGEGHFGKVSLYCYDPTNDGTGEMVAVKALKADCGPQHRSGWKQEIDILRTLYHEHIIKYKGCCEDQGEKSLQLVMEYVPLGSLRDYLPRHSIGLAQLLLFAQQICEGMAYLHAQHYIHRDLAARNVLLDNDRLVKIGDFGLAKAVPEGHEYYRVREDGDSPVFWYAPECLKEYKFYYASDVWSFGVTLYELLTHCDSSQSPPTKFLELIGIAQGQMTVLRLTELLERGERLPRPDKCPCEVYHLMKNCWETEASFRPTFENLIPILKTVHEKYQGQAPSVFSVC

340 wild-type kinases [5] = molecular target: T5, 340 wild-type kinases (Homo sapiens, UniProt Q00536)
T5 construct: purchased Reaction Biology Europe
T5 sequence (Q00536 whole entry): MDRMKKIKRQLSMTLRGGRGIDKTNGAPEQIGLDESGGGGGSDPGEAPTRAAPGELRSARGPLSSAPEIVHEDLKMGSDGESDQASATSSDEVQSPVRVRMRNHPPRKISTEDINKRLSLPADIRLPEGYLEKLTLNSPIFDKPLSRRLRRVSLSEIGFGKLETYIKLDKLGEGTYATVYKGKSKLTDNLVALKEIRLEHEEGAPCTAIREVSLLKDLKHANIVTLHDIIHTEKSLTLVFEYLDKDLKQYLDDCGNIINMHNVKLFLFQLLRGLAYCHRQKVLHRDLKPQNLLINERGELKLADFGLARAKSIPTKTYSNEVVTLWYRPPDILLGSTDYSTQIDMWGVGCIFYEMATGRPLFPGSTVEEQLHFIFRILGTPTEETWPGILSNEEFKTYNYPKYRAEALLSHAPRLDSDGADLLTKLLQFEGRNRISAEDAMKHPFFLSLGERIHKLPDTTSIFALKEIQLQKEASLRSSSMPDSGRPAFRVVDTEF

340 wild-type kinases [6] = molecular target: T6, 340 wild-type kinases (Homo sapiens, UniProt Q15208)
T6 construct: purchased Reaction Biology Europe

340 wild-type kinases [7] = molecular target: T7, 340 wild-type kinases (Homo sapiens, UniProt Q13705)
T7 construct: purchased Reaction Biology Europe

340 wild-type kinases [8] = molecular target: T8, 340 wild-type kinases (Homo sapiens, UniProt P29376)
T8 construct: purchased Reaction Biology Europe
T8 sequence (P29376 17-864): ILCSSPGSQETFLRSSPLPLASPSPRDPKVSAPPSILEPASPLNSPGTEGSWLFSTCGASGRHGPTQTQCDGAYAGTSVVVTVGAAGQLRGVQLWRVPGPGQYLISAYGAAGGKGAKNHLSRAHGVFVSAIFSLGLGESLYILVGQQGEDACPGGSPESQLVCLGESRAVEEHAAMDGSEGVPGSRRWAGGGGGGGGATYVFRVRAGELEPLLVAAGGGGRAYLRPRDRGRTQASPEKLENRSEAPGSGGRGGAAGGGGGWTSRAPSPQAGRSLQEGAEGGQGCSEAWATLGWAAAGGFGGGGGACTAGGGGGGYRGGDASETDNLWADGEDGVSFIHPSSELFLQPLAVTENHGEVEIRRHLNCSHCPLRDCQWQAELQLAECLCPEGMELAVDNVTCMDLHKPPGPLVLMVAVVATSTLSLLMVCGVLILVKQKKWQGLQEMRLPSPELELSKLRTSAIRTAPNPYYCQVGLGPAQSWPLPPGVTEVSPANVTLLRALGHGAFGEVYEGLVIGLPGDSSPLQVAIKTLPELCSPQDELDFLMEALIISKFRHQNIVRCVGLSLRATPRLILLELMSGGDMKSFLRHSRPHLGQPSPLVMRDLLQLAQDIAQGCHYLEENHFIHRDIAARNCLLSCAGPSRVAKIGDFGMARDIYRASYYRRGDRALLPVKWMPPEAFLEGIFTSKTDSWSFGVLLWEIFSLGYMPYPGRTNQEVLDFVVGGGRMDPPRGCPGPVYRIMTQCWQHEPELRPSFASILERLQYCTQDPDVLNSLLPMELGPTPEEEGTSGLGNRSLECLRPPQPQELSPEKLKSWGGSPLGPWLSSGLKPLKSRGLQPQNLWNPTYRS

340 wild-type kinases [9] = molecular target: T9, 340 wild-type kinases (Homo sapiens, UniProt P51617)
T9 construct: purchased Reaction Biology Europe

340 wild-type kinases [10] = molecular target: T10, 340 wild-type kinases (Homo sapiens, UniProt Q5VT25)
T10 construct: purchased Reaction Biology Europe

340 wild-type kinases [11] = molecular target: T11, 340 wild-type kinases (Homo sapiens, UniProt Q15375)
T11 construct: purchased Reaction Biology Europe

340 wild-type kinases [12] = molecular target: T12, 340 wild-type kinases (Homo sapiens, UniProt P27361)
T12 construct: purchased Reaction Biology Europe
T12 sequence (P27361 whole entry): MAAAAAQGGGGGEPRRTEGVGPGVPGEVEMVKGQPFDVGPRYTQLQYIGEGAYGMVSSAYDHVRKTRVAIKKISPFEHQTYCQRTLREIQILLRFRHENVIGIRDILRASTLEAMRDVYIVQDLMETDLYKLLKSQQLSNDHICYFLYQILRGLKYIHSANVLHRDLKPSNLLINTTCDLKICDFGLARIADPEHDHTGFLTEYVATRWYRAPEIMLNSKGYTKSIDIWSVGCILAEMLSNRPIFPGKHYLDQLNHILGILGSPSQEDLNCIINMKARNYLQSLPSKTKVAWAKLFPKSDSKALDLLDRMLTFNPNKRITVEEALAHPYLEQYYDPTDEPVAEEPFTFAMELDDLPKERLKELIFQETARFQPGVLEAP

340 wild-type kinases [13] = molecular target: T13, 340 wild-type kinases (Homo sapiens, UniProt Q8IZL9)
T13 construct: purchased Reaction Biology Europe
T13 sequence (Q8IZL9 whole entry): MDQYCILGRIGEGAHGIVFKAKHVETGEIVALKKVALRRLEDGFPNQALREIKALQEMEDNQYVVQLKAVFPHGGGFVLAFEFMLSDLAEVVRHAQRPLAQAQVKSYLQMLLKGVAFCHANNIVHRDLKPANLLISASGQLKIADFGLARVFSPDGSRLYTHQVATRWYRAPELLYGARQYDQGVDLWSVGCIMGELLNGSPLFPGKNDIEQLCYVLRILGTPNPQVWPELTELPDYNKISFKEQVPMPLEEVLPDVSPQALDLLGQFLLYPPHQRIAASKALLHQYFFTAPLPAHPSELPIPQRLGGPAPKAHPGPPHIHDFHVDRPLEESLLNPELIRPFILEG

340 wild-type kinases [14] = molecular target: T14, 340 wild-type kinases (Homo sapiens, UniProt Q05397)
T14 construct: purchased Reaction Biology Europe

340 wild-type kinases [15] = molecular target: T15, 340 wild-type kinases (Homo sapiens, UniProt Q6P5Z2)
T15 construct: purchased Reaction Biology Europe
T15 sequence (Q6P5Z2 whole entry): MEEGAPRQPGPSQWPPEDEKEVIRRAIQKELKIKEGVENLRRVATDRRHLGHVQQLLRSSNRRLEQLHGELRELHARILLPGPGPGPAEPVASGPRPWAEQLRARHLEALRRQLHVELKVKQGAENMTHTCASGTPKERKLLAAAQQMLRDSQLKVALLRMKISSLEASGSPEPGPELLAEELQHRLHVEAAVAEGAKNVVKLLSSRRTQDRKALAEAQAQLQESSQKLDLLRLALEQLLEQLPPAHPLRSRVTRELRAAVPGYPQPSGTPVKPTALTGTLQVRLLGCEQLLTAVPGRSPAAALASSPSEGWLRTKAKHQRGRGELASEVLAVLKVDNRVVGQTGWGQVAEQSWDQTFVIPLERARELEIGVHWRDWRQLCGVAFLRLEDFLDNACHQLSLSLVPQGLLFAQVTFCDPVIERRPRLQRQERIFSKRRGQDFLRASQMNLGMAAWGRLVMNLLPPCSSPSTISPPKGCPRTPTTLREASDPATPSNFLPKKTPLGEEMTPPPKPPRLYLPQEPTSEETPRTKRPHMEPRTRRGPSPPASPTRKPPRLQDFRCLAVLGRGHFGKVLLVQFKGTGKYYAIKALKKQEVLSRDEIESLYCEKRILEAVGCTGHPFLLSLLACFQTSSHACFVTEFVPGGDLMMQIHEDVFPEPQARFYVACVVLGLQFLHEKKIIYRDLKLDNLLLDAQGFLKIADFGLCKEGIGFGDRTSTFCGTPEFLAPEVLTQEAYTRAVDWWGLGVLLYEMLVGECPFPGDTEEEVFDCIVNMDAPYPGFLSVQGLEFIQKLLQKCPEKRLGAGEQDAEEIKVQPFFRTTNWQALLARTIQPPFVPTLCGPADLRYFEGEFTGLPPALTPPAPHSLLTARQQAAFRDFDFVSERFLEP

340 wild-type kinases [16] = molecular target: T16, 340 wild-type kinases (Homo sapiens, UniProt P06213)
T16 construct: purchased Reaction Biology Europe

340 wild-type kinases [17] = molecular target: T17, 340 wild-type kinases (Homo sapiens, UniProt Q9NR20)
T17 construct: purchased Reaction Biology Europe
T17 sequence (Q9NR20 1-520): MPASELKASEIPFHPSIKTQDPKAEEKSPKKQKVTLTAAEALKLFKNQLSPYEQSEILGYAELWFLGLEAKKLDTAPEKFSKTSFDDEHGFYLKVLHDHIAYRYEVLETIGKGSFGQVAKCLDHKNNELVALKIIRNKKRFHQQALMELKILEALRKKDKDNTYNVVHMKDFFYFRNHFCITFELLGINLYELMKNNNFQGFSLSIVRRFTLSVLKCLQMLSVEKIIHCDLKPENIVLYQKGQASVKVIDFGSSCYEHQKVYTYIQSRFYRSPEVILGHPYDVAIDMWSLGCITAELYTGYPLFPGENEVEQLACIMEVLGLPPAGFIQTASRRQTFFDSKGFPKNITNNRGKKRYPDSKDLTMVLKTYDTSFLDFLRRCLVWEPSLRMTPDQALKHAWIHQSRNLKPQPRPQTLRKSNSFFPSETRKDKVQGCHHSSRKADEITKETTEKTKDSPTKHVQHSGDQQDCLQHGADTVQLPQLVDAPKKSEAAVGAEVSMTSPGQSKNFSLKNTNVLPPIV

[18] = read-out: DYRK4 residual activity

T1 sequence (Q9HAZ1 whole entry): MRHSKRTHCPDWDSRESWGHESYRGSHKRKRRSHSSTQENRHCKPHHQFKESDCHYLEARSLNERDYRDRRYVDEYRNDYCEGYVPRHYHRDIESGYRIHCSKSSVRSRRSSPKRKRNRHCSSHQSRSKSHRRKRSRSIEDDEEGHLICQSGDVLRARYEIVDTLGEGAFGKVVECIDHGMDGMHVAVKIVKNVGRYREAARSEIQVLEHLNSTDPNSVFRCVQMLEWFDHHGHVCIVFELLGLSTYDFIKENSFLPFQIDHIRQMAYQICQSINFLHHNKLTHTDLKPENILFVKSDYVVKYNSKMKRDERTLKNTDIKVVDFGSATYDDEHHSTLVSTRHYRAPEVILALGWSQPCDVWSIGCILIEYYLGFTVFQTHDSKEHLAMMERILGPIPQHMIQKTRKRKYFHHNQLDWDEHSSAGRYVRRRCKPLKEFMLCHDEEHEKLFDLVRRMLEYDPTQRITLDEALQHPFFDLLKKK

CNC(=O)c1ccc2c(c1)C(=O)c1ccc(Nc3ccc(F)c(NC(=O)C4CC4)c3)cc1CC2 [Compound 2015]
remaining activity at 0.2 µM (340 wild-type kinases [1]; 0.2 µM 2015, read-out: CLK4 residual activity): 120% | remaining activity at 0.2 µM (340 wild-type kinases [1]; CLK4, 0.2 µM, read-out: residual activity): 120% | remaining activity at 1 µM (340 wild-type kinases [1]; CLK4, 1 µM, read-out: residual activity): 118% | remaining activity at 0.2 µM (340 wild-type kinases [2]; 0.2 µM 2015, read-out: MAPKAPK3 residual activity): 97.3% | remaining activity at 1 µM (340 wild-type kinases [2]; 1 µM 2015, read-out: MAPKAPK3 residual activity): 86.1% | remaining activity at 0.2 µM (340 wild-type kinases [2]; MAPKAPK3, 0.2 µM, read-out: residual activity): 97.3% | remaining activity at 1 µM (340 wild-type kinases [2]; MAPKAPK3, 1 µM, read-out: residual activity): 86.1% | remaining activity at 0.2 µM (340 wild-type kinases [3]; 0.2 µM 2015, read-out: JNK2 residual activity): 61.1% | remaining activity at 1 µM (340 wild-type kinases [3]; 1 µM 2015, read-out: JNK2 residual activity): 40.4% | remaining activity at 0.2 µM (340 wild-type kinases [3]; JNK2, 0.2 µM, read-out: residual activity): 61.1% | remaining activity at 1 µM (340 wild-type kinases [3]; JNK2, 1 µM, read-out: residual activity): 40.4% | effect on JNK2 (in words) (340 wild-type kinases [3]; panel of 340 kinases, 1 µM and 0.2 µM): moderate influence | remaining activity at 0.2 µM (340 wild-type kinases [4]; 0.2 µM 2015, read-out: TYK2 residual activity): 103% | remaining activity at 1 µM (340 wild-type kinases [4]; 1 µM 2015, read-out: TYK2 residual activity): 96.3% | remaining activity at 0.2 µM (340 wild-type kinases [4]; TYK2, 0.2 µM, read-out: residual activity): 103% | remaining activity at 1 µM (340 wild-type kinases [4]; TYK2, 1 µM, read-out: residual activity): 96.3% | remaining activity at 0.2 µM (340 wild-type kinases [5]; 0.2 µM 2015, read-out: CDK16/CycY residual activity): 99.3% | remaining activity at 1 µM (340 wild-type kinases [5]; 1 µM 2015, read-out: CDK16/CycY residual activity): 96.8% | remaining activity at 0.2 µM (340 wild-type kinases [5]; CDK16/CycY, 0.2 µM, read-out: residual activity): 99.3% | remaining activity at 1 µM (340 wild-type kinases [5]; CDK16/CycY, 1 µM, read-out: residual activity): 96.8% | remaining activity at 0.2 µM (340 wild-type kinases [6]; 0.2 µM 2015, read-out: NDR1 residual activity): 91.9% | remaining activity at 1 µM (340 wild-type kinases [6]; 1 µM 2015, read-out: NDR1 residual activity): 94% | remaining activity at 0.2 µM (340 wild-type kinases [6]; NDR1, 0.2 µM, read-out: residual activity): 91.9% | remaining activity at 1 µM (340 wild-type kinases [6]; NDR1, 1 µM, read-out: residual activity): 94% | remaining activity at 0.2 µM (340 wild-type kinases [7]; 0.2 µM 2015, read-out: ACVR2B residual activity): 81.6% | remaining activity at 1 µM (340 wild-type kinases [7]; 1 µM 2015, read-out: ACVR2B residual activity): 82.3% | remaining activity at 0.2 µM (340 wild-type kinases [7]; ACVR2B, 0.2 µM, read-out: residual activity): 81.7% | remaining activity at 1 µM (340 wild-type kinases [7]; ACVR2B, 1 µM, read-out: residual activity): 82.3% | remaining activity at 0.2 µM (340 wild-type kinases [8]; 0.2 µM 2015, read-out: LTK residual activity): 100% | remaining activity at 1 µM (340 wild-type kinases [8]; 1 µM 2015, read-out: LTK residual activity): 99.3% | remaining activity at 0.2 µM (340 wild-type kinases [8]; LTK, 0.2 µM, read-out: residual activity): 100% | remaining activity at 1 µM (340 wild-type kinases [8]; LTK, 1 µM, read-out: residual activity): 99.3% | remaining activity at 0.2 µM (340 wild-type kinases [9]; 0.2 µM 2015, read-out: IRAK1 residual activity): 108% | remaining activity at 1 µM (340 wild-type kinases [9]; 1 µM 2015, read-out: IRAK1 residual activity): 94.2% | remaining activity at 0.2 µM (340 wild-type kinases [9]; IRAK1, 0.2 µM, read-out: residual activity): 108% | remaining activity at 1 µM (340 wild-type kinases [9]; IRAK1, 1 µM, read-out: residual activity): 94.2% | remaining activity at 0.2 µM (340 wild-type kinases [10]; 0.2 µM 2015, read-out: CDC42BPA residual activity): 118% | remaining activity at 1 µM (340 wild-type kinases [10]; 1 µM 2015, read-out: CDC42BPA residual activity): 112% | remaining activity at 0.2 µM (340 wild-type kinases [10]; CDC42BPA, 0.2 µM, read-out: residual activity): 118% | remaining activity at 1 µM (340 wild-type kinases [10]; CDC42BPA, 1 µM, read-out: residual activity): 112% | remaining activity at 0.2 µM (340 wild-type kinases [11]; 0.2 µM 2015, read-out: EPHA7 residual activity): 126% | remaining activity at 1 µM (340 wild-type kinases [11]; 1 µM 2015, read-out: EPHA7 residual activity): 106% | remaining activity at 0.2 µM (340 wild-type kinases [11]; EPHA7, 0.2 µM, read-out: residual activity): 126% | remaining activity at 1 µM (340 wild-type kinases [11]; EPHA7, 1 µM, read-out: residual activity): 106% | remaining activity at 1 µM (340 wild-type kinases [12]; 1 µM 2015, read-out: ERK1 residual activity): 104% | remaining activity at 0.2 µM (340 wild-type kinases [12]; ERK1, 0.2 µM, read-out: residual activity): 108% | remaining activity at 1 µM (340 wild-type kinases [12]; ERK1, 1 µM, read-out: residual activity): 104% | remaining activity at 0.2 µM (340 wild-type kinases [13]; 0.2 µM 2015, read-out: CDK20/CycH residual activity): 107% | remaining activity at 0.2 µM (340 wild-type kinases [13]; 0.2 µM 2015, read-out: CDK20/CycT1 residual activity): 103% | remaining activity at 1 µM (340 wild-type kinases [13]; 1 µM 2015, read-out: CDK20/CycH residual activity): 97.2% | remaining activity at 1 µM (340 wild-type kinases [13]; 1 µM 2015, read-out: CDK20/CycT1 residual activity): 96.3% | remaining activity at 0.2 µM (340 wild-type kinases [13]; CDK20/CycH, 0.2 µM, read-out: residual activity): 107% | remaining activity at 1 µM (340 wild-type kinases [13]; CDK20/CycH, 1 µM, read-out: residual activity): 97.2% | remaining activity at 0.2 µM (340 wild-type kinases [13]; CDK20/CycT1, 0.2 µM, read-out: residual activity): 103% | remaining activity at 1 µM (340 wild-type kinases [13]; CDK20/CycT1, 1 µM, read-out: residual activity): 96.3% | remaining activity at 0.2 µM (340 wild-type kinases [14]; 0.2 µM 2015, read-out: FAK residual activity): 121% | remaining activity at 1 µM (340 wild-type kinases [14]; 1 µM 2015, read-out: FAK residual activity): 115% | remaining activity at 0.2 µM (340 wild-type kinases [14]; FAK, 0.2 µM, read-out: residual activity): 121% | remaining activity at 1 µM (340 wild-type kinases [14]; FAK, 1 µM, read-out: residual activity): 115% | remaining activity at 0.2 µM (340 wild-type kinases [15]; 0.2 µM 2015, read-out: PKN3 residual activity): 84.5% | remaining activity at 1 µM (340 wild-type kinases [15]; 1 µM 2015, read-out: PKN3 residual activity): 95.6% | remaining activity at 0.2 µM (340 wild-type kinases [15]; PKN3, 0.2 µM, read-out: residual activity): 84.5% | remaining activity at 1 µM (340 wild-type kinases [15]; PKN3, 1 µM, read-out: residual activity): 95.6% | remaining activity at 0.2 µM (340 wild-type kinases [16]; 0.2 µM 2015, read-out: INSR residual activity): 99.9% | remaining activity at 1 µM (340 wild-type kinases [16]; 1 µM 2015, read-out: INSR residual activity): 99.3% | remaining activity at 0.2 µM (340 wild-type kinases [16]; INSR, 0.2 µM, read-out: residual activity): 99.9% | remaining activity at 1 µM (340 wild-type kinases [16]; INSR, 1 µM, read-out: residual activity): 99.3% | remaining activity at 0.2 µM (340 wild-type kinases [17]; [18]): 108% | remaining activity at 1 µM (340 wild-type kinases [17]; [18]): 97.1% | remaining activity at 0.2 µM (340 wild-type kinases [17]; read-out: residual activity): 108% | remaining activity at 1 µM (340 wild-type kinases [17]; read-out: residual activity): 97.1%
